Experimental data published in patent US9085576B2 (AMGEN INC., priority 2013, dated 2015).
pIC50: −log10 of the molar value. Counter-ions that a name gives are not always drawn.

Tests used:
[1] = target: BACE (Homo sapiens (Human), UniProt P56817); test: In vitro BACE cell-based assay (Aβ40 in conditioned medium, sandwich ELISA)
[2] = target: Cathepsin D (Cat D) (Homo sapiens (Human), UniProt P07339); test: In vitro enzymatic Cathepsin D (Cat D) FRET assay; type: biochemical; conditions: read-out: CatD IC50
Cathepsin D (Cat D), sequence (P07339 65-412, species assumed): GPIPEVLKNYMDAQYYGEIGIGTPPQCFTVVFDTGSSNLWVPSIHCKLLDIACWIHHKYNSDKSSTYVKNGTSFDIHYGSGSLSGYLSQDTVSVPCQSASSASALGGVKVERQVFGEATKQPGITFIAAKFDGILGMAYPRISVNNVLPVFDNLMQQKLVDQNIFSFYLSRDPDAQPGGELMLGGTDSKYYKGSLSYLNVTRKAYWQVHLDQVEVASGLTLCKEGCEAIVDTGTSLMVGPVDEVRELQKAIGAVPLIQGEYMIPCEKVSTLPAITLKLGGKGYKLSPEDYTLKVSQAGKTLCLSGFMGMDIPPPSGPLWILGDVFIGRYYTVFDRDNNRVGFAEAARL

[3] = target: Beta Secretase enzyme (BACE) (Homo sapiens (Human), UniProt P56817); test: In vitro enzymatic BACE FRET assay; type: biochemical; conditions: read-out: BACE1 Enzyme assay IC50
Beta Secretase enzyme (BACE), sequence (P56817 46-501): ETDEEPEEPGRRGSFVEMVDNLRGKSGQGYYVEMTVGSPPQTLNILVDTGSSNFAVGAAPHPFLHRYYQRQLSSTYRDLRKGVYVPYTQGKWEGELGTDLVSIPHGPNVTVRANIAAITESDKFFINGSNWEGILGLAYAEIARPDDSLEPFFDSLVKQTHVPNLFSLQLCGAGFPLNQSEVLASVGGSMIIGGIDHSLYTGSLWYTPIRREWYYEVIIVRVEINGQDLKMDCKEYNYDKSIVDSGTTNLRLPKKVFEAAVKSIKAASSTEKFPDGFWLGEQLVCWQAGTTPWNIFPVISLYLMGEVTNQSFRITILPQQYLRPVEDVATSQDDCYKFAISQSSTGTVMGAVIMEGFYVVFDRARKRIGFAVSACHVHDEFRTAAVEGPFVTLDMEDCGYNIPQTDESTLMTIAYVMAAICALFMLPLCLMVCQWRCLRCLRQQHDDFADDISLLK

BACE, sequence (P56817 46-501, species assumed): as the sequence (P56817 46-501) above

| SMILES | IC50 [1] | pIC50 [2] | pIC50 [3] | pIC50 [1] |
| --- | --- | --- | --- | --- |
| COc1cnc(C(=O)Nc2cc(Cl)c(F)c([C@@]3(CF)N=C(N)O[C@@H]4C[C@@H]43)c2)c(C)n1 [Example 89, N-(3-((1R,5S,6R)-3-amino-5-(fluoromethyl)-2-oxa-4-azabicyclo[4.1.0]hept-3-en-5-yl)-5-chloro-4-fluorophenyl)-5-methoxy-3-methylpyrazine-2-carboxamide] | 0.0245 µM | 3.24 | 7.14 | – |
| COc1ccc(C(=O)Nc2ccc(Cl)c([C@@]3(C(F)F)N=C(N)O[C@@H]4C[C@@H]43)c2)nc1 [Example 100, N-(3-((1R,5S,6R)-3-amino-5-(difluoromethyl)-2-oxa-4-azabicyclo[4.1.0]hept-3-en-5-yl)-4-chlorophenyl)-5-methoxypicolinamide] | 0.0209 µM | 3.72 | 7.21 | – |
| NC1=N[C@](CF)(c2cc(NC(=O)c3nn(C(F)F)cc3Cl)ccc2F)[C@H]2C[C@H]2O1 [Example 164, N-(3-((1R,5S,6R)-3-amino-5-(fluoromethyl)-2-oxa-4-azabicyclo[4.1.0]hept-3-en-5-yl)-4-fluorophenyl)-4-chloro-1-(difluoromethyl)-1H-pyrazole-3-carboxamide] | 0.0109 µM | 3.02 | 7.63 | – |
| Cc1ncc(Cl)nc1C(=O)Nc1ccc(F)c([C@@]2(C(F)F)N=C(N)O[C@@H]3C[C@@H]32)c1 (stereo in doubt) [Example 54, N-(3-((1R,5S,6R)-3-amino-5-(difluoromethyl)-2-oxa-4-azabicyclo[4.1.0]hept-3-en-5-yl)-4-fluorophenyl)-6-chloro-3-methylpyrazine-2-carboxamide] | 2.24 µM | 3.34 | 5.60 | – |
| NC1=N[C@](c2cc(NC(=O)c3ccc(Cl)cn3)ccc2F)(C(F)(F)F)[C@@H]2C[C@@H]2O1 (racemic) [Example 218, N-(3-((1(R,S),5(S,R),6(R,S))-3-amino-5-(trifluoromethyl)-2-oxa-4-azabicyclo[4.1.0]hept-3-en-5-yl)-4-fluorophenyl)-5-chloropicolinamide compound] | > 15.6 µM | < 3.40 | 6.06 | – |
| NC1=N[C@@](c2cc(NC(=O)c3ccc(Cl)cn3)ccc2Cl)(C(F)F)[C@H]2C[C@H]2O1 (racemic) [Example 97, N-(3-(((1R,S), (5S,R), (6R,S))-3-amino-5-(difluoromethyl)-2-oxa-4-azabicyclo[4.1.0]hept-3-en-5-yl)-4-chlorophenyl)-5-chloropicolinamide trifluoroacetate] | 0.0505 µM | 2.89 | 7.43 | – |
| Cc1cc(OCC(F)(F)F)cnc1C(=O)Nc1ccc(F)c([C@@]2(C(F)F)N=C(N)O[C@@H]3C[C@@H]32)c1 [Example 189, N-(3-((1R,5S,6R)-3-amino-5-(difluoromethyl)-2-oxa-4-azabicyclo[4.1.0]hept-3-en-5-yl)-4-fluorophenyl)-3-methyl-5-(2,2,2-trifluoroethoxy) picolinamide] | 0.386 µM | 3.11 | 6.92 | – |
| CS(=O)(=O)c1ccc(C(=O)Nc2ccc(F)c([C@@]3(C(F)F)N=C(N)O[C@@H]4C[C@@H]43)c2)nc1 [Example 182, N-(3-((1R,5S,6R)-3-amino-5-(difluoromethyl)-2-oxa-4-azabicyclo[4.1.0]hept-3-en-5-yl)-4-fluorophenyl)-5-(methylsulfonyl) picolinamide] | 3.36 µM | 3.25 | 4.88 | – |
| Cc1ccc(C(=O)Nc2ccc(F)c([C@@]3(C(F)F)N=C(N)O[C@@H]4C[C@@H]43)c2)nc1 [Example 190, N-(3-((1R,5S,6R)-3-amino-5-(difluoromethyl)-2-oxa-4-azabicyclo[4.1.0]hept-3-en-5-yl)-4-fluorophenyl)-5-methylpicolinamide] | 0.0735 µM | 2.83 | 6.82 | – |
| NC1=N[C@@](CF)(c2cc(NC(=O)c3ccc(Cl)cn3)cnc2F)[C@@H]2C[C@@H]2O1 [Example 230, N-(5-((1S,5R,6S)-3-amino-5-(fluoromethyl)-2-oxa-4-azabicyclo[4.1.0]hept-3-en-5-yl)-6-fluoropyridin-3-yl)-5-chloropicolinamide] | 2.23 µM | < 3.40 | 4.92 | – |

Continued, values first:

| IC50 [1] | pIC50 [2] | pIC50 [3] | pIC50 [1] | SMILES |
| --- | --- | --- | --- | --- |
| 0.289 µM | 2.97 | 6.87 | – | CC(C)c1cc(C#N)cnc1C(=O)Nc1ccc(F)c([C@@]2(C(F)F)N=C(N)O[C@@H]3C[C@@H]32)c1 [Example 394, N-(3-((1R,5S,6R)-3-amino-5-(difluoromethyl)-2-oxa-4-azabicyclo[4.1.0]hept-3-en-5-yl)-4-fluorophenyl)-5-cyano-3-isopropylpicolinamide] |
| 0.564 µM | 3.72 | 5.85 | – | NC1=N[C@@](c2cc(NCC3CC3)ccc2F)(C(F)F)[C@H]2C[C@H]2O1 [Example 379, (1R,5S,6R)-5-(5-((cyclopropylmethyl)amino)-2-fluorophenyl)-5-(difluoromethyl)-2-oxa-4-azabicyclo[4.1.0]hept-3-en-3-amine] |
| 0.0418 µM | 3.23 | 7.79 | – | C#CCOc1ccc(C(=O)Nc2ccc(F)c([C@@]3(C(F)F)N=C(N)O[C@@H]4C[C@@H]43)c2)nc1 [Example 232, N-(3-((1R,5S,6R)-3-amino-5-(difluoromethyl)-2-oxa-4-azabicyclo[4.1.0]hept-3-en-5-yl)-4-fluorophenyl)-5-(prop-2-yn-1-yloxy)picolinamide] |
| 0.0656 µM | 3.60 | 7.54 | – | NC1=N[C@](CF)(c2cc(Nc3nccc4cc(Cl)cnc34)ccc2Cl)[C@H]2C[C@H]2O1 [Example 359, (1R,5S,6R)-5-(2-chloro-5-((3-chloro-1,7-naphthyridin-8-yl)amino)phenyl)-5-(fluoromethyl)-2-oxa-4-azabicyclo[4.1.0]hept-3-en-3-amine] |
| 0.0503 µM | 3.85 | 7.19 | – | NC1=N[C@@](c2cc(Nc3ncnc4cc(Cl)cnc34)ccc2F)(C(F)F)[C@H]2C[C@H]2O1 [Example 353, (1R,5S,6R)-5-(5-((7-chloropyrido[3,2-d]pyrimidin-4-yl)amino)-2-fluorophenyl)-5-(difluoromethyl)-2-oxa-4-azabicyclo[4.1.0]hept-3-en-3-amine] |
| 1.12 µM | 3.14 | 5.80 | – | NC1=N[C@@](c2cc(NC(=O)c3cccc(Cl)n3)ccc2F)(C(F)F)[C@H]2C[C@H]2O1 [Example 286, N-(3-((1R,5S,6R)-3-amino-5-(difluoromethyl)-2-oxa-4-azabicyclo[4.1.0]hept-3-en-5-yl)-4-fluorophenyl)-6-chloropicolinamide] |
| 1.49 µM | 3.43 | 5.39 | – | C#CCOc1cnc(C(=O)Nc2cc(F)c(Cl)c([C@]3(CF)N=C(N)O[C@H]4C[C@H]43)c2)cn1 [Example 318] |
| 8.85 µM | 4.20 | 4.86 | – | NC1=N[C@@](c2cc(NCC3(c4ccc(Cl)cc4)CC3)ccc2F)(C(F)F)[C@H]2C[C@H]2O1 [Example 370, (1R,5S,6R)-5-(5-(((1-(4-chlorophenyl)cyclopropyl)methyl)amino)-2-fluorophenyl)-5-(difluoromethyl)-2-oxa-4-azabicyclo[4.1.0]hept-3-en-3-amine] |
| > 15.6 µM | 3.35 | < 4.40 | – | NC1=N[C@@](c2cc(NC(=O)C3(c4ccc(Cl)cc4)CC3)ccc2F)(C(F)F)[C@H]2C[C@H]2O1 [Example 245, N-(3-((1R,5S,6R)-3-amino-5-(difluoromethyl)-2-oxa-4-azabicyclo[4.1.0]hept-3-en-5-yl)-4-fluorophenyl)-1-(4-chlorophenyl) cyclopropanecarboxamide] |
| 0.024 µM | 3.61 | 8.24 | – | CC#CCOc1ccc(C(=O)Nc2ccc(F)c([C@@]3(C(F)F)N=C(N)O[C@@H]4C[C@@H]43)c2)nc1 [Example 233, N-(3-((1R,5S,6R)-3-amino-5-(difluoromethyl)-2-oxa-4-azabicyclo[4.1.0]hept-3-en-5-yl)-4-fluorophenyl)-5-(but-2-yn-1-yloxy)picolinamide] |
| 0.134 µM | < 3.40 | 5.68 | – | Cn1cc2ccnc(Nc3ccc(F)c([C@@]4(C(F)F)N=C(N)O[C@@H]5C[C@@H]54)c3)c2n1 [Example 358] |
| – | 3.44 | 8.12 | 6.95 | NC1=N[C@@](c2cc(NC(=O)c3cnc(OCC#CC4CC4)cn3)ccc2F)(C(F)F)[C@H]2C[C@H]2O1 [Example 411, N-(3-((1R,5S,6R)-3-amino-5-(difluoromethyl)-2-oxa-4-azabicyclo[4.1.0]hept-3-en-5-yl)-4-fluorophenyl)-5-((3-cyclopropylprop-2-yn-1-yl)oxy)pyrazine-2-carboxamide] |
| 0.0747 µM | 3.14 | 7.04 | – | CN(C)c1cc(C#N)cnc1C(=O)Nc1ccc(F)c([C@@]2(C(F)F)N=C(N)O[C@@H]3C[C@@H]32)c1 [Example 389, N-(3-((1R,5S,6R)-3-amino-5-(difluoromethyl)-2-oxa-4-azabicyclo[4.1.0]hept-3-en-5-yl)-4-fluorophenyl)-5-cyano-3-(dimethylamino)picolinamide] |
| – | 3.13 | 6.49 | 6.29 | CC1(C#Cc2ccc(C(=O)Nc3ccc(F)c([C@@]4(C(F)F)N=C(N)O[C@@H]5C[C@@H]54)c3)nc2)COC1 [Example 409, N-(3-((1R,5S,6R)-3-amino-5-(difluoromethyl)-2-oxa-4-azabicyclo[4.1.0]hept-3-en-5-yl)-4-fluorophenyl)-5-((3-methyloxetan-3-yl)ethynyl)picolinamide] |
| 0.144 µM | 3.69 | 6.61 | – | NC1=N[C@@](c2cc(NC(=O)C#Cc3ccccc3)ccc2F)(C(F)F)[C@H]2C[C@H]2O1 [Example 262, N-(3-((1R,5S,6R)-3-amino-5-(difluoromethyl)-2-oxa-4-azabicyclo[4.1.0]hept-3-en-5-yl)-4-fluorophenyl)-3-phenylpropiolamide] |
